# Results taken from patent US10668051B2, “Modulators of calcium release-activated calcium channel” (Rhizen Pharmaceuticals SA, priority 2009, dated 2020).
# Counter-ions that a name gives are not always drawn.
# Target: CRAC channels (Homo sapiens (Human), UniProt Q96D31)
# Experiment: In-vitro CRAC channel inhibition assay in Jurkat cells (thapsigargin-induced calcium influx)
# Assay type: cell-based
# Protocol: 1A. In-Vitro CRAC Channel Inhibition Assay in Jurkat Cells
# Plate is incubated at 37° C./5% CO2 for 30 min followed by further 15 min incubation at room temperature. Test compounds (DMSO stocks diluted in Ca^2+ and Mg^2+ free Hanks buffer) at desired concentrations were added to the wells and incubated for 15 min. Thapsigargin (1 μM final concentration) was added to the wells and incubated for 15 min to inhibit the Sarco-endoplasmic reticulum Ca^2+ ATPase pump thereby depleting endoplasmic calcium and raising cytosolic calcium concentrations. Store-operated calcium entry was initiated by adding extracellular Ca^2+ to a final concentration of 1.8 mM. Fluorescence was monitored over 5 min on a plate reader (BMG Labtech., Germany) with excitation at 485 nm and; an emission wavelength at 520 nm. Data were analyzed using GraphPad Prism. IC50 for each compound was determined based on the percent inhibition of thapsigargin-induced calcium influx into cells.
# Sequence of CRAC channels (Q96D31 whole entry): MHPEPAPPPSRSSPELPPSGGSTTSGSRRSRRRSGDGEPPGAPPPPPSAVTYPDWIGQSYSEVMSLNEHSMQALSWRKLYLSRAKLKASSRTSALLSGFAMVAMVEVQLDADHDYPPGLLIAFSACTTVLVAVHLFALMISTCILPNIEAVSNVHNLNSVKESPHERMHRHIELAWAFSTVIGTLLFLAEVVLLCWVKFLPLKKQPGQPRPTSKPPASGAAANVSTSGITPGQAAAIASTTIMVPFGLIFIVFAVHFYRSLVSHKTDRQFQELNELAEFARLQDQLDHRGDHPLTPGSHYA
Structure (SMILES),inhibition at 1 µM [%],% inhibition (1 uM) [%]
"O=C(CN1CCNCC1)Nc1ccc(-n2nc(C3CC3)cc2C2CC2)cc1 [Example 25, N-[4-(3,5-dicyclopropyl-1H-pyrazol-1-yl)phenyl]-2-(piperazin-1-yl)acetamide hydrochloride]",29,–
"O=C(CN1CCOCC1)Nc1ccc(-n2nc(C3CC3)cc2C2CC2)cc1 [Example 26, N-[4-(3,5-dicyclopropyl-1H-pyrazol-1-yl)phenyl]-2-morpholinoacetamide]",43,–
"Cc1ncsc1C(=O)Nc1ccc(-n2nc(C3CC3)cc2C2CC2)c(F)c1 [Example 29, N-[4-(3,5-dicyclopropyl-1H-pyrazol-1-yl)-3-fluorophenyl]-4-methylthiazole-5-carboxamide]",100,–
"Cc1noc(C)c1C(=O)Nc1ccc(-n2nc(C3CC3)cc2C2CC2)c(F)c1 [Example 30, N-[4-(3,5-dicyclopropyl-1H-pyrazol-1-yl)-3-fluorophenyl]-3,5-dimethylisoxazole-4-carboxamide]",35.1,–
"O=C(Nc1ccc(-n2nc(C3CC3)cc2C2CC2)c(F)c1)c1cccc(F)c1F [Example 32, N-[4-(3,5-dicyclopropyl-1H-pyrazol-1-yl)-3-fluorophenyl]-2,3-difluorobenzamide]",63.6,–
"O=C(Nc1ccc(-n2nc(C3CC3)cc2C2CC2)c(F)c1)c1c(F)cccc1F [Example 33, N-[4-(3,5-dicyclopropyl-1H-pyrazol-1-yl)-3-fluorophenyl]-2,6-difluorobenzamide]",93.1,–
"O=C(Nc1ccc(-n2nc(C3CC3)cc2C2CC2)c(F)c1)c1cccnc1 [Example 34, N-[4-(3,5-dicyclopropyl-1H-pyrazol-1-yl)-3-fluorophenyl]nicotinamide hydrochloride]",21.5,–
"Cl.O=C(Nc1ccc(-n2nc(C3CC3)cc2C2CC2)c(F)c1)c1ccncc1 [Example 35, N-[4-(3,5-dicyclopropyl-1H-pyrazol-1-yl)-3-fluorophenyl]isonicotinamde hydrochloride]",–,100
"Cc1ncncc1C(=O)Nc1ccc(-n2nc(C3CC3)cc2C2CC2)c(F)c1 [Example 36, N-[4-(3,5-dicyclopropyl-1H-pyrazol-1-yl)-3-fluorophenyl]-4-methylpyrimidine-5-carboxamide]",68.2,–
"Cc1nnsc1C(=O)Nc1ccc(-n2nc(C3CC3)c(Cl)c2C2CC2)c(F)c1 [Example 37, N-[4-(4-chloro-3,5-dicyclopropyl-1H-pyrazol-1-yl)-3-fluorophenyl]-4-methyl-1,2,3-thiadiazole-5-carboxamide]",82.2,–
"Cc1nnsc1C(=O)Nc1ccc(-n2nc(C3CC3)cc2C2CC2)nc1 [Example 38, N-[6-(3,5-dicyclopropyl-1H-pyrazol-1-yl)pyridin-3-yl]-4-methyl-1,2,3-thiadiazole-5-carboxamide hydrochloride]",52.7,–
"Cc1ncsc1C(=O)Nc1ccc(-n2nc(C3CC3)cc2C2CC2)nc1 [Example 39, N-[6-(3,5-dicyclopropyl-1H-pyrazol-1-yl)pyridin-3-yl]-4-methylthiazole-5-carboxamide hydrochloride]",41.3,–
"Cc1nc(C)c(C(=O)Nc2ccc(-n3nc(C4CC4)cc3C3CC3)nc2)s1 [Example 40, N-[6-(3,5-dicyclopropyl-1H-pyrazol-1-yl)pyridin-3-yl]-2,4-dimethylthiazole-5-carboxamide]",12.6,–
"Cc1noc(C)c1C(=O)Nc1ccc(-n2nc(C3CC3)cc2C2CC2)nc1 [Example 41, N-[6-(3,5-dicyclopropyl-1H-pyrazol-1-yl)pyridin-3-yl]-3,5-dimethylisoxazole-4-carboxamide]",0,–
"Cc1ccccc1NC(=O)c1ccc(-n2nc(C3CC3)cc2C2CC2)nc1 [Example 42, 6-(3,5-dicyclopropyl-1H-pyrazol-1-yl)-N-o-tolylnicotinamide]",26.2,–
"O=C(Nc1ccc(-n2nc(C3CC3)cc2C2CC2)nc1)c1cccc(F)c1F [Example 44, N-[6-(3,5-dicyclopropyl-1H-pyrazol-1-yl)pyridin-3-yl]-2,3-difluorobenzamide hydrochloride]",63.4,–
"O=C(Nc1ccc(-n2nc(C3CC3)cc2C2CC2)nc1)c1c(F)cccc1F [Example 45, N-[6-(3,5-dicyclopropyl-1H-pyrazol-1-yl)pyridin-3-yl]-2,6-difluorobenzamide hydrochloride]",72.3,–

# More lines, main results first:
inhibition at 1 µM [%],Structure (SMILES),% inhibition (1 uM) [%]
72.2,"Cc1nc(C)c(C(=O)Nc2ccc(-n3nc(C4CC4)cc3C3CC3)cc2)s1 [Example 3, N-[4-(3,5-dicyclopropyl-1H-pyrazol-1-yl)phenyl]-2,4-dimethylthiazole-5-carboxamide]",–
100,"Cc1oncc1C(=O)Nc1ccc(-n2nc(C3CC3)cc2C2CC2)cc1 [Example 4, N-[4-(3,5-dicyclopropyl-1H-pyrazol-1-yl)phenyl]-5-methylisoxazole-4-carboxamide]",–
48.5,"Cc1noc(C)c1C(=O)Nc1ccc(-n2nc(C3CC3)cc2C2CC2)cc1 [Example 5, N-[4-(3,5-dicyclopropyl-1H-pyrazol-1-yl)phenyl]-3,5-dimethylisoxazole-4-carboxamide]",–
99,"Cc1ccccc1C(=O)Nc1ccc(-n2nc(C3CC3)cc2C2CC2)cc1 [Example 7, N-[4-(3,5-dicyclopropyl-1H-pyrazol-1-yl)phenyl]-2-methylbenzamide]",–
100,"O=C(Nc1ccc(-n2nc(C3CC3)cc2C2CC2)cc1)c1c(F)cccc1F [Example 8, N-[4-(3,5-dicyclopropyl-1H-pyrazol-1-yl)phenyl]-2,6-difluorobenzamide]",–
49.5,CS(=O)(=O)c1cccc(C(=O)Nc2ccc(-n3nc(C4CC4)cc3C3CC3)cc2)c1 [Example 10],–
71.9,"CS(=O)(=O)c1ccc(C(=O)Nc2ccc(-n3nc(C4CC4)cc3C3CC3)cc2)cc1 [Example 11, N-[4-(3,5-dicyclopropyl-1H-pyrazol-1-yl)phenyl]-4-(methylsulfonyl)benzamide]",–
90.8,"CSc1ccc(Cl)c(C(=O)Nc2ccc(-n3nc(C4CC4)cc3C3CC3)cc2)c1 [Example 12, 2-chloro-N-[4-(3,5-dicyclopropyl-1H-pyrazol-1-yl)phenyl]-5-(methylthio)benzamide]",–
37.2,"CS(=O)(=O)c1ccc(Cl)c(C(=O)Nc2ccc(-n3nc(C4CC4)cc3C3CC3)cc2)c1 [Example 13, 2-chloro-N-[4-(3,5-dicyclopropyl-1H-pyrazol-1-yl)phenyl)-5-(methylsulfonyl)benzamide]",–
25.9,"O=C(Nc1ccc(-n2nc(C3CC3)cc2C2CC2)cc1)c1cccnc1 [Example 14, N-[4-(3,5-dicyclopropyl-1H-pyrazol-1-yl)phenyl]nicotinamide hydrochloride]",–
94,"O=C(Nc1ccc(-n2nc(C3CC3)cc2C2CC2)cc1)c1ccncc1 [Example 15, N-[4-(3,5-dicyclopropyl-1H-pyrazol-1-yl)phenyl]isonicotinamide hydrochloride]",–
92.8,"O=C(Nc1ccc(-n2nc(C3CC3)cc2C2CC2)cc1)c1ccncc1F [Example 16, N-[4-(3,5-dicyclopropyl-1H-pyrazole-1-yl)phenyl]-3-fluoroisonicotinamide]",–
87.5,"O=C(Nc1ccc(-n2nc(C3CC3)cc2C2CC2)cc1)c1c(Cl)cncc1Cl [Example 17, 3,5-dichloro-N-(4-(3,5-dicyclopropyl-1H-pyrazol-1-yl)phenyl)isonicotinamide]",–
82.8,"Cc1ncncc1C(=O)Nc1ccc(-n2nc(C3CC3)cc2C2CC2)cc1 [Example 18, N-[4-(3,5-dicyclopropyl-1H-pyrazol-1-yl)phenyl]-4-methylpyrimidine-5-carboxamide]",–
73.5,"O=C(Cc1ccccc1)Nc1ccc(-n2nc(C3CC3)cc2C2CC2)cc1 [Example 19, N-[4-(3,5-dicyclopropyl-1H-pyrazol-1-yl)phenyl]-2-phenylacetamide]",–
70.2,"O=C(Cc1ccc(F)cc1)Nc1ccc(-n2nc(C3CC3)cc2C2CC2)cc1 [Example 20, N-[4-(3,5-dicyclopropyl-1H-pyrazol-1-yl)phenyl]-2-(4-fluorophenyl)acetamide]",–
73.4,"O=C(Cc1ccccn1)Nc1ccc(-n2nc(C3CC3)cc2C2CC2)cc1 [Example 22, N-[4-(3,5-dicyclopropyl-1H-pyrazol-1-yl)phenyl]-2-(pyridin-2-yl)acetamide hydrochloride]",–
53.8,"O=C(Cc1cccnc1)Nc1ccc(-n2nc(C3CC3)cc2C2CC2)cc1 [Example 23, N-[4-(3,5-dicyclopropyl-1H-pyrazol-1-yl)phenyl]-2-(pyridin-3-yl)acetamide hydrochloride]",–
38,"O=C(Cc1ccncc1)Nc1ccc(-n2nc(C3CC3)cc2C2CC2)cc1 [Example 24, N-[4-(3,5-dicyclopropyl-1H-pyrazol-1-yl)phenyl]-2-(pyridin-4-yl)acetamide hydrochloride]",–
91.2,"O=S(=O)(Nc1ccc(-n2nc(C3CC3)cc2C2CC2)cc1)c1ccccc1 [Example 27, N-[4-(3,5-dicyclopropyl-1H-pyrazol-1-yl)phenyl]benzenesulfonamide]",–
77,"Cc1ccccc1C(=O)Nc1ccc(-n2nc(C3CC3)cc2C2CC2)c(F)c1 [Example 31, N-[4-(3,5-dicyclopropyl-1H-pyrazol-1-yl)-3-fluorophenyl]-2-methyl benzamide]",–
9.34,"O=C(Nc1ccc(-n2nc(C3CC3)cc2C2CC2)nc1)c1ccccc1F [Example 43, N-[6-(3,5-dicyclopropyl-1H-pyrazol-1-yl)pyridin-3-yl]-2-fluorobenzamide]",–
